Test results from ChEMBL document CHEMBL4270593, “Novel spiroindoline HDAC inhibitors: Synthesis, molecular modelling and biological studies” (Eur J Med Chem, 2018).
pIC50: −log10 of the molar value. Active and inactive are the calls of the source. No cut-off for these calls is given here.

How the values were obtained:
Homo sapiens [1] = species: Homo sapiens; assay: Selectivity ratio of IC50 for human recombinant C-terminal His/FLAG-tagged full length HDAC1 to IC50 for N-terminal GST-tagged full length HDAC6
Histone deacetylase 1 = Histone deacetylase 1 (Homo sapiens, UniProt Q13547); assay: Inhibition of human recombinant C-terminal His/FLAG-tagged full length HDAC1 expressed in insect SF9 cells using fluorogenic ZMAL as substrate after 90 mins by fluorescence-based assay
[2] = biological target: T1, Protein deacetylase HDAC6 (Homo sapiens, UniProt Q9UBN7); assay: Inhibition of human recombinant N-terminal GST-tagged full length HDAC6 expressed in insect SF9 cells using fluorogenic ZMAL as substrate after 90 mins by fluorescence-based assay
T1 sequence (Q9UBN7 whole entry): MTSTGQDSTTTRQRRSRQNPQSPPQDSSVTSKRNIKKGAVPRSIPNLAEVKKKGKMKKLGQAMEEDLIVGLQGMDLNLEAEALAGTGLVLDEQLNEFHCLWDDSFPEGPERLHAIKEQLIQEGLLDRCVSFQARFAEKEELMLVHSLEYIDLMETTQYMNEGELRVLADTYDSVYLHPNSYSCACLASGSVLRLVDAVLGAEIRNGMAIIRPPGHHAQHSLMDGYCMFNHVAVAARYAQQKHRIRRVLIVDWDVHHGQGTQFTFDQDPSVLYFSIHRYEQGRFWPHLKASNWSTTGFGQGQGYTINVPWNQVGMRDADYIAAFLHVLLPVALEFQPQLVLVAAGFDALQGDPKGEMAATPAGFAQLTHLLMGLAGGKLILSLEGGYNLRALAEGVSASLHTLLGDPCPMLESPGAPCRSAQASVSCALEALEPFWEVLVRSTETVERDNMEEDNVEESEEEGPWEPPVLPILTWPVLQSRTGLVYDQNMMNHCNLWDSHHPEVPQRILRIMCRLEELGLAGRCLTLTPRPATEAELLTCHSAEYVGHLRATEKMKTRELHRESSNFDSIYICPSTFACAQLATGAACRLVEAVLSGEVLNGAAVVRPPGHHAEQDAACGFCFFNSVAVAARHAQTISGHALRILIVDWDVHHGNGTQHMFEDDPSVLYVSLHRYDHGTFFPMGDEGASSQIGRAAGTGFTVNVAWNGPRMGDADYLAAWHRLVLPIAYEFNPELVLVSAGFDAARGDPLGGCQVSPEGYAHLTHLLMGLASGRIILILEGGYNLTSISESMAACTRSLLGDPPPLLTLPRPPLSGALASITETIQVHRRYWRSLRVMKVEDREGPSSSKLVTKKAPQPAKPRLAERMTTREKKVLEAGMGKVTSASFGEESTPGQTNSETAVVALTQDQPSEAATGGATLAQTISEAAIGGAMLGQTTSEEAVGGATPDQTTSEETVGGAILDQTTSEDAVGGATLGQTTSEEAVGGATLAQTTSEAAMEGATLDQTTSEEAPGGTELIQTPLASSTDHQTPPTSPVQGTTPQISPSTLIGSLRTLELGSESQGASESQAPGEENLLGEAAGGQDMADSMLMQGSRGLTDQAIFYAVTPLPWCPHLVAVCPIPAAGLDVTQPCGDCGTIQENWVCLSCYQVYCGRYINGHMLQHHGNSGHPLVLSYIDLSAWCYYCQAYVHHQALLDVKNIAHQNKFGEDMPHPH

Homo sapiens [3] = species: Homo sapiens; assay: Selectivity ratio of IC50 for human recombinant C-terminal His-tagged full length HDAC3/NcoR2 to IC50 for human recombinant N-terminal GST-tagged full length HDAC6
Homo sapiens [4] = species: Homo sapiens; assay: Selectivity ratio of IC50 for human recombinant C-terminal His/FLAG-tagged full length HDAC2 to IC50 for human recombinant N-terminal GST-tagged full length HDAC6
[5] = biological target: T2, Protein deacetylase HDAC6 (Homo sapiens) (UniProt Q9UBN7); assay: Inhibition of HDAC6 in human SH-SY5Y cells assessed as increase in levels of alpha-tubulin acetylation after 30 hrs by Western blot analysis; assay type: cell-based
T2 sequence (whole entry): T1 sequence (Q9UBN7 whole entry)

[6] = Inhibition of class 1 HDAC in human SH-SY5Y cells assessed as levels of histone H3 acetylation at lysine 9/14 at 5 uM after 30 hrs by Western blot analysis relative to control
Histone deacetylase 8 = biological target: T3, Histone deacetylase 8 (Homo sapiens, UniProt Q9BY41); assay: Inhibition of human recombinant HDAC8 using fluor de Lys(R) as substrate after 90 mins by fluorescence-based assay
T3 sequence (Q9BY41 whole entry): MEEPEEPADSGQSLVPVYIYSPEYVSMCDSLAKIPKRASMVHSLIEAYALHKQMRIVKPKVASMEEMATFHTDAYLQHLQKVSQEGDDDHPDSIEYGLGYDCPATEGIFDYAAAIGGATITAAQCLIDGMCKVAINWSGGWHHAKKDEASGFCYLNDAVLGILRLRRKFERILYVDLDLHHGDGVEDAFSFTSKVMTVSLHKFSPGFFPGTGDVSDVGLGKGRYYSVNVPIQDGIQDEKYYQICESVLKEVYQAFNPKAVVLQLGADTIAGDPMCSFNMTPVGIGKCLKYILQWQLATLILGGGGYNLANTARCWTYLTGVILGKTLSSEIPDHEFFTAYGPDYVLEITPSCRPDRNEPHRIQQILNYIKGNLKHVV

[7] = Cytotoxicity against mouse NIH/3T3 cells assessed as reduction in cell viability by neutral red uptake test; assay type: cell-based, NIH3T3; conditions: read-out: TC50 (the source's name)
[8] = Inhibition of class 1 HDAC in human NB4 cells assessed as levels of histone H3 acetylation at lysine 9/14 at 1 uM after 30 hrs by Western blot analysis relative to control
[9] = Inhibition of class 1 HDAC in human SH-SY5Y cells assessed as levels of histone H3 acetylation at lysine 9/14 at 1 uM after 30 hrs by Western blot analysis relative to control
[10] = Inhibition of class 1 HDAC in human U87 cells assessed as levels of histone H3 acetylation at lysine 9/14 at 1 uM after 30 hrs by Western blot analysis relative to control; conditions: u87, 30 h
NB-4 [11] = assay: Induction of cell death in human NB4 cells assessed as DNA fragmentation at 5 uM after 30 hrs by propidium iodide-based FACS analysis; assay type: functional
[12] = Inhibition of class 1 HDAC in human U87 cells assessed as levels of histone H3 acetylation at lysine 9/14 at 5 uM after 30 hrs by Western blot analysis relative to control; conditions: u87, 30 h
[13] = Inhibition of class 1 HDAC in human NB4 cells assessed as levels of histone H3 acetylation at lysine 9/14 at 5 uM after 30 hrs by Western blot analysis relative to control
[14] = biological target: T2, Protein deacetylase HDAC6 (Homo sapiens); assay: Inhibition of HDAC6 in human SH-SY5Y cells assessed as reduction in cell migration at 5 uM measured every 2 mins for 4 days by RTCA based assay
[15] = biological target: T2, Protein deacetylase HDAC6 (Homo sapiens); assay: Inhibition of HDAC6 in human U87 cells assessed as increase in levels of alpha-tubulin acetylation after 30 hrs by Western blot analysis; assay type: cell-based
NB-4 [16] = assay: Induction of cell cycle arrest in human NB4 cells assessed as accumulation at G1 phase after 30 hrs by propidium iodide-based FACS analysis; assay type: functional
NB-4 [17] = assay: Induction of cell cycle arrest in human NB4 cells assessed as accumulation at G1 phase at 5 uM after 30 hrs by propidium iodide-based FACS analysis; assay type: functional

Sequence of Histone deacetylase 1 (Q13547 whole entry): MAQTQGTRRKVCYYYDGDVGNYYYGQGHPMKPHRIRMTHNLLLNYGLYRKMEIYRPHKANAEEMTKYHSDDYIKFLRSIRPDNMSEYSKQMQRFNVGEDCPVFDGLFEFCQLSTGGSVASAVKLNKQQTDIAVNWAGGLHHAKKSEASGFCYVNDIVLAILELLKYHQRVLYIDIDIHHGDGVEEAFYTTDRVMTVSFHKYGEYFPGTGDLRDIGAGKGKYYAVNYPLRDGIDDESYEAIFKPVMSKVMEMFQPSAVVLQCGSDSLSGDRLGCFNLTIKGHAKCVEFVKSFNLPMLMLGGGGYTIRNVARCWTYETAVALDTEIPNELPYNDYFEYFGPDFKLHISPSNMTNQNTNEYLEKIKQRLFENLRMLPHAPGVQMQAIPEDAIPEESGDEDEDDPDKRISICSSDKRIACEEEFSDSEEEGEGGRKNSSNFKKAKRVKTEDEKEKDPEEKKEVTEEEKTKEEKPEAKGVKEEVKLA

CC(=O)N1CCC2(CC1)CN(Cc1ccc(C(=O)NO)cc1)c1ccccc12
Ratio IC50 (Homo sapiens [1]): 116 | pIC50 (Histone deacetylase 1): 5.14 | pIC50 [2]: 7.20

O=C(CCCCCCNC(=O)c1cnc(N(c2ccccc2)c2ccccc2Cl)nc1)NO
Ratio IC50 (Homo sapiens [1]): 10 | Ratio IC50 (Homo sapiens [3]): 10 | Ratio IC50 (Homo sapiens [4]): 10

CC(C)(C)OC(=O)N1CCC2(CC1)CN(Cc1ccc(C(=O)NO)cc1)c1ccccc12
Ratio IC50 (Homo sapiens [1]): 95 | inhibition [5]: Dose-dependent effect | FC [6]: 1.11 | pIC50 (Histone deacetylase 8): 5.80 | CC50 [7]: 23 µM | pIC50 (Histone deacetylase 1): 5.40 | FC [8]: 1.12 | FC [9]: 1.1 | FC [10]: 2.74 | Activity (NB-4 [11]): Active | pIC50 [2]: 7.38 | FC [12]: 2.12 | FC [13]: 0.96 | inhibition [14]: Active

O=C(NO)c1ccc(CN2CC3(CCCCC3)c3ccccc32)cc1
Ratio IC50 (Homo sapiens [1]): 166 | inhibition [15]: Dose-dependent effect | pIC50 (Histone deacetylase 8): 6.60 | pIC50 (Histone deacetylase 1): 5.17 | FC [8]: 2.27 | FC [10]: 1.77 | pIC50 [2]: 7.39 | FC [12]: 2.21 | FC [13]: 2.58

CN1CCC2(CC1)CN(Cc1ccc(C(=O)NO)cc1)c1ccccc12
Ratio IC50 (Homo sapiens [1]): 57 | inhibition [15]: Dose-dependent effect | pIC50 (Histone deacetylase 1): 4.93 | FC [8]: 1.02 | FC [10]: 1.83 | pIC50 [2]: 6.69 | FC [12]: 1.6 | FC [13]: 2.44

CN1CCC2(CC1)CN(Cc1ccc(C(=O)NO)s1)c1ccccc12
Ratio IC50 (Homo sapiens [1]): 6 | pIC50 (Histone deacetylase 1): 4.94 | pIC50 [2]: 5.75

CC(C)(C)OC(=O)N1CCC2(CC1)CN(Cc1ccc(C(=O)NO)s1)c1ccccc12
Ratio IC50 (Homo sapiens [1]): 15 | pIC50 (Histone deacetylase 8): 5.87 | pIC50 (Histone deacetylase 1): 4.96 | pIC50 [2]: 6.14

CN1CCc2c(c3ccccc3n2Cc2ccc(C(=O)NO)cc2)C1 [TUBASTATIN A]
FC [6]: 1.17 | FC [8]: 0.84 | FC [9]: 1.13 | FC [10]: 1.68 to 1.97 | FC [12]: 2.18 to 2.38 | FC [13]: 0.97

O=C(CCCCCCNC(=O)c1cnc(N(c2ccccc2)c2ccccc2)nc1)NO
Ratio IC50 (Homo sapiens [1]): 10 | Ratio IC50 (Homo sapiens [3]): 10 | Ratio IC50 (Homo sapiens [4]): 10

O=C(CCCCCCC(=O)Nc1ccccc1)NO
Activity (NB-4 [16]): Active

CC(C)(C)C(=O)N1CCC2(CC1)CN(Cc1ccc(C(=O)NO)cc1)c1ccccc12
Ratio IC50 (Homo sapiens [1]): 74 | pIC50 (Histone deacetylase 1): 5.35 | Activity (NB-4 [17]): Active | pIC50 [2]: 7.22
